From patent publication US5968923A, “(Azetidin-1-ylalkyl) lactams as tachykinin antagonists” (Pfizer Inc., priority 1994, dated 1999)

Tests used:
human NK2 receptor = target: T1, human NK2 receptor (Homo sapiens, UniProt P21452); test: Competition with [^125 I] NKA for binding to membranes from Chinese hamster ovary cells expressing the cloned human NK2 receptor (Method A); settings: Chinese hamster ovary cell membranes; for IC50: read-out: METHOD A (pIC50) (converted)
T1 construct: expressed in transfected cells; host or cells: Chinese hamster ovary (CHO) cells, membranes
T1 sequence (P21452 1-398): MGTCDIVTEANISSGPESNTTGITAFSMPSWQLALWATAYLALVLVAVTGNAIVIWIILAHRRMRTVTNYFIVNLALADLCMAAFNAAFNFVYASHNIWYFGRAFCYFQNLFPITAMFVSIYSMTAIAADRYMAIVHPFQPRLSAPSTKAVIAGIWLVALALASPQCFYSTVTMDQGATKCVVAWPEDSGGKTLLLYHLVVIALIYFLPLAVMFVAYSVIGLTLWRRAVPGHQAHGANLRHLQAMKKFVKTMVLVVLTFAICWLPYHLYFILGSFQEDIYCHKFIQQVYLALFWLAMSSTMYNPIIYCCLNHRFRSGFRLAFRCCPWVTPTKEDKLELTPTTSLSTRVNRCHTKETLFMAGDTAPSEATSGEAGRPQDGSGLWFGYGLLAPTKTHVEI
Method: The affinity of the compounds of formula (I) and their salts for the human NK2 receptor can be tested in vitro by testing their ability to compete with [^3 H] or [^125 I]NKA (neurokinin A) for binding to membranes prepared from Chinese hamster ovary cells expressing the cloned human NK2 receptor. In this method, washed Chinese hamster ovary cell membranes are prepared as described for the previous method where IM9 cells are used instead. The membranes are incubated (90 min, 25° C.) with [^3 H] NKA and with a range of concentrations of the test compound. Non-specific binding was determined in the presence of 10 μM NKA.
(§1) A representative selection of the compounds of the Examples were tested in vitro for their affinity to the human NK2 receptor by testing their ability to compete with [^125 I] NKA for binding to membranes prepared from Chinese hamster ovary cells expressing the cloned human NK2 receptor (Method A) and for their ability to antagonise the contractile effects of [βAla^8 ] NKA(4-10) in the rabbit pulmonary artery (Method B) by the methods described on pages 40 and 41 of the specification.

NK2 receptor = target: T2, NK2 receptor (Oryctolagus cuniculus, UniProt P79218); test: Antagonism of the contractile effects of [βAla^8 ] NKA(4-10) in the rabbit pulmonary artery (Method B); assay type: cell-based; settings: agonist [βAla^8 ] NKA(4-10); for Kb: read-out: METHOD B (pA2) (converted)
T2 construct: antagonise the contractile effects of [βAla^8 ]; NKA(4-10) in the rabbit pulmonary artery; from tissue; host or cells: rabbit pulmonary artery
T2 sequence (P79218 1-384): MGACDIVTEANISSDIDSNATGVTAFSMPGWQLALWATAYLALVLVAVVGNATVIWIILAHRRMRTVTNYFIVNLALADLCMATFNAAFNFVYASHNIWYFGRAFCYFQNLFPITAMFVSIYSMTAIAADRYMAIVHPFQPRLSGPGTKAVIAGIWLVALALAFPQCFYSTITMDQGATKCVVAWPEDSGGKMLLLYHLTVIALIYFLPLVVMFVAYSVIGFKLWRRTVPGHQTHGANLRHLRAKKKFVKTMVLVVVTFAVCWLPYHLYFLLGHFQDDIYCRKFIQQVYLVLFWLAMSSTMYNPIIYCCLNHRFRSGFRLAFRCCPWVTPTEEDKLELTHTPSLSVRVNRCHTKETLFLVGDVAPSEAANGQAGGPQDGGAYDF
Method: The NK2 receptor antagonist activity of the compounds of the formula (I) can be tested, in vitro, by testing their ability to antagonise the contractile effects of the selective NK2 receptor agonist [βAla^8 ]NKA(4-10) in the rabbit pulmonary artery, using the method of Patacchini and Maggi, Eur. J. Pharmacol., 236, 31-37 (1993).
as §1

| Structure (SMILES) | IC50 (human NK2 receptor) [nM] | Kb (NK2 receptor) [nM] | METHOD A (pIC50) (human NK2 receptor) | METHOD B (pA2) (NK2 receptor) |
| --- | --- | --- | --- | --- |
| O=C1CCC(CCN2CC(N3CC[S+]([O-])CC3)C2)(c2ccc(F)c(F)c2)CN1Cc1ccccc1 (stereo not drawn) [Example 14] | 63.1 | 12.6 |  |  |
| O=C1CCC(CCN2CC(C(=O)N3CCCCC3)C2)(c2ccc(Cl)c(Cl)c2)CN1Cc1ccccc1 (stereo not drawn) [Example 31] | 1 | 5.01 |  |  |
| O=C1CCC(CCN2CC(N3[C@@H]4CC[C@H]3C[C@@H](O)C4)C2)(c2ccc(Cl)c(Cl)c2)CN1Cc1ccccc1 (stereo partly drawn) [Example 104, 1-Benzyl-5-(3,4-dichlorophenyl)-5-(2-[3-(endo-3-hydroxy-8-azabicyolo[3,2,1]oct-8-yl)azetidin-1-yl]ethyl)-2-piperidone] |  |  | 8.8 | 9.2 |

Now from value to compound, other results behind:

| IC50 (human NK2 receptor) [nM] | Kb (NK2 receptor) [nM] | Structure (SMILES) | METHOD A (pIC50) (human NK2 receptor) | METHOD B (pA2) (NK2 receptor) |
| --- | --- | --- | --- | --- |
| 0.316 | 1.26 | CC1CCCCC1CN1CC(CCN2CC(N3CCOCC3)C2)(c2ccc(Cl)c(Cl)c2)CCC1=O (stereo not drawn) [Example 73] |  |  |
| 5.01 | 0.794 | CC(c1ccccc1)N1CC(CCN2CC(N3CCOCC3)C2)(c2ccc(Cl)c(Cl)c2)CCC1=O (stereo not drawn) [Example 75 (enantiomeric pair A)] |  |  |
| 6.31 | 2.51 | CS(=O)(=O)N1CCN(C2CN(CCC3(c4ccc(Cl)cc4)CCC(=O)N(CC4CCCCC4)C3)C2)CC1 (stereo not drawn) [Example 89] |  |  |
